Article PMC7617978, “Anti-trypanosomal quinazolines targeting lysyl-tRNA synthetases show partial efficacy in a mouse model of acute Chagas disease” (Science translational medicine, 2025)

What was measured:
[1] = target: TcKRS1 (Trypanosoma cruzi, UniProt Q4D7V3); test: TcKRS1 inhibition assay using BIOMOL Green; type: biochemical; details: for IC50: recombinant TcKRS1, 14 μM ATP, 400 μM L-lysine, read-out: IC50 values (95% CI)
Experimental: For TcKRS1 (TcCLB.508971.30), synthetic DNA codon-optimized for expression in E. coli and encoding amino acid residues 54–580 of the TcKRS1 protein was synthesized by Genscript and subcloned into a modified pET15b vector, with an N-terminal 6×His tag and a Tobacco Etch Virus (TEV) cleavage site. The resulting plasmid was transformed into E. coli BL21(DE3) (Stratagene) for expression. A 10-ml starter culture was grown at 37°C overnight, then used to inoculate 1 L of LB Autoinduction media that was grown for 48 h at 20°C. Cell pellets were resuspended in buffer containing 25 mM Tris, 500 mM NaCl, 20 mM imidazole, pH 8.5, and lysed using a continuous flow cell disrupter (Constant Systems). Recombinant TcKRS1 was purified using Ni^2+ affinity chromatography, the 6×His tag cleaved using TEV protease and the tag and protease removed by a second Ni^2+ affinity chromatography step. The protein was further purified via size exclusion chromatography, where TcKRS1 eluted with a mass consistent with the protein forming a dimer. Purified recombinant protein were concentrated to ~1 mg/ml in buffer (25 mM Tris, 150 mM NaCl, 10 % glycerol, pH 7.5) for assay.
(§1) The enzymatic activity of recombinant KRS was determined by monitoring the concentration of pyrophosphate released during the first step of the reaction catalyzed by recombinant TcKRS1. The pyrophosphate formed was converted to two inorganic phosphate molecules using a pyrophosphatase enzyme and concentrations of the resulting phosphate were measured using the BIOMOL Green reagent (Enzo Life Sciences). All screening assays were performed in 384-well, clear, flat-bottom plates (Greiner) at room temperature (~23°C) in 50 μl reaction volumes.
To generate IC50 data for test compounds, 10-point inhibitor dose-response curves were prepared in 384-well assay plates using an ECHO 550 acoustic dispenser (Labcyte). Following preparation of the inhibitor curves, assays were carried out for recombinant KRS enzymes as follows: TcKRS1 assay wells contained rTcKRS1 assay buffer (100 mM Tris; […]; HsKRS reactions contained HsKRS assay buffer (30 mM Tris; […].
(§2) All assays were performed by adding 25 μl of assay buffer with enzyme to compound-containing assay wells before the reaction was initiated with the addition of a 25 μl substrate mixture containing L-lysine, ATP and pyrophosphatase. […] Following a 6–h reaction at room temperature, the assays were stopped by the addition of 50 μl BIOMOL Green. The BIOMOL Green signal was allowed to develop for 30 min before the absorbance of each well was read at 650 nm using a PheraStar plate reader (BMG). All liquid-dispensing steps were carried out using a Thermo Scientific WellMate dispenser (Matrix).

[2] = target: T1, human KRS (Homo sapiens, UniProt Q15046); test: Human KRS inhibition assay using BIOMOL Green; type: biochemical; details: for IC50: recombinant HsKRS, 3.5 μM ATP, 6 μM L-lysine, read-out: IC50 values (95% CI)
T1 construct: made in house
Experimental: Cloning, expression and purification of recombinant HsKRS has been described previously ([21]).
as §1
To generate IC50 data for test compounds, 10-point inhibitor dose-response curves were prepared in 384-well assay plates using an ECHO 550 acoustic dispenser (Labcyte).
as §2
All IC50 curve fitting was undertaken using ActivityBase XE (version 7.7.1) from IDBS. Percentage inhibition curves for TcKRS1 and human KRS, were fitted to a four-parameter logistic dose-response equation (XLfit model 203), with pre-fitting for all four parameters, using the equation below, where A is no inhibition, B is maximum inhibition, C is the Log10 (IC50), D is the Hill slope and x is the inhibitor concentration. […]

[3] = target: CYP2D6 (Homo sapiens, UniProt P10635); test: In vitro CYP inhibition, 2D6; type: in vitro ADME
Experimental: (§3) Compounds were screened for CYP inhibition activity using the protocol established by TCG Lifesciences (India). The activity of five CYP450 isoforms: 1A2; 2C9; 2D6, 3A4; and 2C19 was monitored in the presence of test or control (miconazole) compounds at 10 µM. Reactions were terminated after 10 min (30 min for CYP2C19) by the addition of acetonitrile, centrifuged and analysed via LC-MS/MS. […]

[4] = target: CYP3A4 (Homo sapiens, UniProt P08684); test: In vitro CYP inhibition, 3A4; type: in vitro ADME
Experimental: as §3

[5] = test system: T. cruzi CL Brener strain; test: Bioluminescent mouse model of acute T. cruzi infection; type: in vivo, BALB/c mice; details: 50 mg/kg BID oral, 5 days, from 10 days post-infection, bioluminescence imaging
Experimental: Female BALB/c mice (aged 6-7 weeks), purchased from Charles River (UK), were maintained under specific pathogen-free conditions in individually ventilated cages, with a 12 h light/dark cycle. They had access to food and water ad libitum. Mice were infected by intraperitoneal injection (i.p) of 1x10^3 bloodstream trypomastigotes derived from CB17 SCID mouse blood.
Compounds were prepared in 5% (v/v) dimethyl sulfoxide /95% HPMC suspension vehicle (0.5% (w/v) hydroxypropyl methylcellulose, 0.5% (v/v) benzyl alcohol, 0.4% (v/v) Tween 80 in Milli-Q water). Mice were treated as outlined in Fig. 5, with compounds administered by oral gavage. At different days after infection, mice were injected with d-luciferin (150 mg/kg) i.p., anaesthetized using 2.5% (v/v) gaseous isoflurane and imaged using an IVIS Spectrum (Revvity, Hopkinton, MA, USA) 5-10 min later. To estimate parasite burden, mice ventral and dorsal regions of interest were drawn using Living Image 4.7.3 to quantify bioluminescence expressed as total flux (photons/second; p/s). Regions of interest data from infected and not-infected mice were used as controls. Exposure times varied between 30 sec and 5 min, depending on the signal intensity.

[6] = Plasma protein binding; type: in vitro ADME; details: read-out: bound to plasma proteins (converted)
Experimental: The propensity of DMU759 to bind to plasma proteins was determined as previously described ([21]).

[7] = DMU759 exposure in mice after oral dosing; type: in vivo; details: 50 mg/kg oral
Experimental: DMU759 (50 mg/kg) was orally administered to BALB/c mice. The dose solution was prepared on the day of dosing, and the vehicle was 0.5% (w/v) hydroxypropyl methylcellulose and 0.4% […]. Blood samples (10 μl) were collected from the tail vein of each animal at defined intervals then placed into 1.2 mL cryovials containing deionized water (90 μl) and stored at −80°C until analysis. Blood levels of DMU759 in mouse blood were determined by UPLC-MS/MS, as previously described ([58]).

[8] = test system: Lysyl-tRNA synthetase 1 (KRS1); test: Isothermal proteome profiling (iTPP), TcKRS1; type: binding, T. cruzi; details: KRS1 (C4B63_45g239); lysate, compound at 10× EC50, 48°C
Experimental: T. cruzi epimastigote lysates were generated as previously described ([29]). Isothermal TPP assays were performed as previously described ([25]). […] Data processing and analyses were performed as previously described ([25]), except proteins were identified via searches against the T. cruzi Dm28C proteome (tritrypdb.org, version 49).

Sequence of TcKRS1 (Q4D7V3 entry or part of it): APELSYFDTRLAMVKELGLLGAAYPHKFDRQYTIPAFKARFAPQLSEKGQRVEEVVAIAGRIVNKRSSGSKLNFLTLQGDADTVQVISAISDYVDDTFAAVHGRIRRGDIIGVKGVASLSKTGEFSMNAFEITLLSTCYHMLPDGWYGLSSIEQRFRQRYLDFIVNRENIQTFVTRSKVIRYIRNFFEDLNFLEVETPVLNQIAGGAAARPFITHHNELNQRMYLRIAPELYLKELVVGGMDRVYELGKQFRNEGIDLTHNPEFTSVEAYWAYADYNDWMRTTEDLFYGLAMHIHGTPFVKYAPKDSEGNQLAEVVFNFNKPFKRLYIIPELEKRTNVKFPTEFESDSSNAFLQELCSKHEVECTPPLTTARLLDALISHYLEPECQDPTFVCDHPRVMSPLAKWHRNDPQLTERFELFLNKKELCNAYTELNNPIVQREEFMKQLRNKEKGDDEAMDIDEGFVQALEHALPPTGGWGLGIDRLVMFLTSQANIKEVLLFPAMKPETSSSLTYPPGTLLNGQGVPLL
T1 sequence (Q15046 whole entry): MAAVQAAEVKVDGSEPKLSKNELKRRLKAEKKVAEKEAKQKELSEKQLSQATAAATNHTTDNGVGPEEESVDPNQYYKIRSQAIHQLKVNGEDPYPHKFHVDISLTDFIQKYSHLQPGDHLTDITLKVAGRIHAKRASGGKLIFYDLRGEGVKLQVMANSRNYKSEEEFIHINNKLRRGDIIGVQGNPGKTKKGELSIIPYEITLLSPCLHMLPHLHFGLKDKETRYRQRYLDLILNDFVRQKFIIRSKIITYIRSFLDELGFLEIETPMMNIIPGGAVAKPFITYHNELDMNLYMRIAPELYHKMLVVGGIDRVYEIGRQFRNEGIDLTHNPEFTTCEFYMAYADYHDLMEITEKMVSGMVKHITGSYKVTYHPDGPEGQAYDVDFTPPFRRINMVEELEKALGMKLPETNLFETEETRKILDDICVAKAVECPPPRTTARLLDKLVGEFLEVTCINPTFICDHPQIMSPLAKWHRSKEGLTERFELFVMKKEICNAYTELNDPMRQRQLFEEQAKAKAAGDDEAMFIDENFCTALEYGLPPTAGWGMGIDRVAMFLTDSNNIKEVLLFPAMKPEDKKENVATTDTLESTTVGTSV
Sequence of CYP2D6 (P10635 whole entry, canonical isoform): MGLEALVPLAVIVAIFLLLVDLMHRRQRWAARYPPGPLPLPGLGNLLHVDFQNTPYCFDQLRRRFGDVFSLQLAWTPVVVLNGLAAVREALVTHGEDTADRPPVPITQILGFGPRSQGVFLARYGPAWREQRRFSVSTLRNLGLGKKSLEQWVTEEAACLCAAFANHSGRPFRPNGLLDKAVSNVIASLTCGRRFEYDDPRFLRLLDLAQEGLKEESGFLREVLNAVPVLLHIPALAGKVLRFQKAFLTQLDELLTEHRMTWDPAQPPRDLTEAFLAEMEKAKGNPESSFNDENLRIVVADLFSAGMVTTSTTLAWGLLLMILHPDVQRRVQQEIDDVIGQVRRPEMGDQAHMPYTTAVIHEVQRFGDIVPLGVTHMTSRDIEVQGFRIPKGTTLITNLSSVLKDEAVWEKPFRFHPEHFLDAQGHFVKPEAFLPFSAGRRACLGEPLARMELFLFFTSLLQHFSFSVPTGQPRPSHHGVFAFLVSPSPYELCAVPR
Sequence of CYP3A4 (P08684 whole entry): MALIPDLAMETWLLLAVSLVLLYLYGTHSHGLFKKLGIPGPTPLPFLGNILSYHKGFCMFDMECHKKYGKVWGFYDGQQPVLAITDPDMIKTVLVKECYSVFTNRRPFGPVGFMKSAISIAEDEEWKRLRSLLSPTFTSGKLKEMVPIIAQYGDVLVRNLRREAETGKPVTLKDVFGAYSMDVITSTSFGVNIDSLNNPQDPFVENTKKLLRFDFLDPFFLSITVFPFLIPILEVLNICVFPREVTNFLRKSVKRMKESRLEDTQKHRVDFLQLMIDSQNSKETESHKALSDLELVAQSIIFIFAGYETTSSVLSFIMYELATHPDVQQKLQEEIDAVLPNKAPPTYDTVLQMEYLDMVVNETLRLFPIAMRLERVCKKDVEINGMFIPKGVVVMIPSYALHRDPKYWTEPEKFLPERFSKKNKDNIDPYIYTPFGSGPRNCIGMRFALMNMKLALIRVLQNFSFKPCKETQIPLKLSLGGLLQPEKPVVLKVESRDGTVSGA

| SMILES | extent of inhibition of TcKRS1 [1] | IC50 [1] [µM] | extent of inhibition of the human KRS1 enzyme [2] | IC50 [2] [µM] | inhibition at 10 min, 10 µM [3] [%] | inhibition at 10 min, 10 µM [4] [%] | reduction of parasite burden (parasitemia) [5] | fraction unbound [6] | free blood concentration versus EC99 ([7]; corrected for plasma protein binding, in words) | time of peak blood concentration ([7]; post dosing) | time total blood concentrations exceeded EC99 ([7]; post dosing) | Abundance Log2 fold change Rep 1 [8] | Abundance Log2 fold change Rep 2 [8] |
| --- | --- | --- | --- | --- | --- | --- | --- | --- | --- | --- | --- | --- | --- |
| Cc1nc(N)c2c(F)c(F)c(NC3CCCC3)c(F)c2n1 [DMU371, N7-Cyclopentyl-5,6,8-trifluoro-2-methylquinazoline-4,7-diamine] | full inhibition | 0.185 | partial inhibition | 9.8 |  |  |  |  |  |  |  |  |  |
| Cc1nc(N)c2c(F)c(F)c(SC3CCCCC3)c(F)c2n1 [DMU759, 7-(Cyclohexylthio)-5,6,8-trifluoro-2-methylquinazolin-4-amine] | full inhibition | 0.015 | partial inhibition | 7.17 | 14.5 ± 2.5 | 0 | up to 81% | 0.11 | did not exceed the established EC99 | one | up to 4 hours | 2.26 | 1.94 |
